Experimental data taken from BindingDB's records for doi:10.1124/jpet.104.070086 (University of North Carolina At Chapel Hill, 2004).

Molecular target: Histamine H1 receptor (Cavia porcellus, UniProt P31389)
Sequence (P31389 whole entry): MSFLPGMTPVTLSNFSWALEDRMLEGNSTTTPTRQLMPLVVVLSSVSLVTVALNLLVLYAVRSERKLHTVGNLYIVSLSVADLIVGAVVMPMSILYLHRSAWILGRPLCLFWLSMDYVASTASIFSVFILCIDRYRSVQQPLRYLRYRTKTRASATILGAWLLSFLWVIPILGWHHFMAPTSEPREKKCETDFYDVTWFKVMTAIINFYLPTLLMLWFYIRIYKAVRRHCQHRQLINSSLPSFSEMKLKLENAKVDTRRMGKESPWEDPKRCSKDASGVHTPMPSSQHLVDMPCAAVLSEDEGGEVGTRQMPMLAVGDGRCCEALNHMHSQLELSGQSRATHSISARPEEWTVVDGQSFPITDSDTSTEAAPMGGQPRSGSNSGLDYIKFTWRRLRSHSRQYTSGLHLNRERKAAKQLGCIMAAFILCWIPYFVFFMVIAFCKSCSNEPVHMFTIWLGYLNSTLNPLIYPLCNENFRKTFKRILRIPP

Cc1ccc(C(=CCN2CCCC2)c2ccccn2)cc1 [CAS_486-12-4]
Ki: 0.93 nM
